The values below come from patent US20230399320A1, “NOVEL CAPSID ASSEMBLY INHIBITOR” (Pelemed Co., Ltd., priority 2020, published 2023).

SMILES strings stand for the structures. Like-named read-outs stand apart in the source and are kept apart here. Where only a bound is given, the exact number is not on record here.

The subject of one test is HBV DNA. Briefly: Quantitative PCR for measuring HBV DNA in cells (HBV DNA quantification). In kind it is cell-based. How it is done:
After treating cells with the indicated compounds, HBV DNA secreted into the medium and intracellular HBV DNA were extracted, purified, and quantified by quantitative PCR. To isolate the secreted HBV DNA, the culture medium was recovered and centrifuged at 15,000×g to remove debris. The medium was diluted 1:1 with phosphate-buffered saline (PBS), and 1 M NaOH solution was added to a final concentration of 0.1 M. The mixture was incubated at 37° C. for 1 hour. The protein was denatured by adding 2M Tris-HCl solution (pH 7.5) to a final concentration of 0.2 M and incubating at 98° C. for 5 minutes. The protein precipitation was removed by centrifugation at 15,000×g, and the supernatant was subjected to PCR with HBV DNA primer and probe sets:
Forward: 5′-[…]-3′, Reverse: 5′-[…]-3′, Probe: 5′-[…]-3′.

Test [1] addresses T1, Cp149 (truncated form of a HBV core protein) (Hepatitis B virus genotype D subtype ayw, UniProt P03146).
T1 construct: Cp149 (amino acids 1-149) is a truncated form of a HBV core protein; histidine tag (cleaved yes); made in house; host or cells: Escherichia coli BL21(DE3)
In words: Protein based assay: immunoblot analysis of in vitro HBV capsid assembly. Conditions: for inhibition at 0.1 µM: read-out: Protein based assay (% inhibition), 0.1 μM; for inhibition at 1 µM: read-out: Protein based assay (% inhibition), 1 μM; for inhibition at 10 µM: read-out: Protein based assay (% inhibition, 10 μM). The test is classed as biochemical. The procedure:
Cp149 (amino acids 1-149) is a truncated form of a HBV core protein. It was expressed in Escherichia coli, and the expressed protein was purified. The recombinant Cp149 was expressed in E. coli BL21(DE3) cells cultured in LB medium at 37° C. When the culture reached an OD600 of 0.7 to 0.8, expression of the culture was induced with 0.5 mM isopropyl-β-d-thiogalactopyranoside and the culture was cooled to 16° C. After 16 hours, the cells were harvested, flash-frozen in liquid nitrogen, and stored at −80° C. To purify Cp149, thawed cells were resuspended in lysis buffer (20 mM Tris-HCl pH 9.0, 200 mM NaCl, 10 mM imidazole, 10 μg per mL DNaseI, 1 mM phenylmethylsulfonyl fluoride), and treated with ultrasonic waves. The supernatant was loaded onto Ni-NTA affinity resin. Proteins were eluted using a 20 mM to 500 mM imidazole gradient dissolved in lysis buffer. After removing the histidine tag with thrombin, the protein was further purified by HiTrap Q anion exchange chromatography (17115401, GE Healthcare).
To determine the effect on in vitro Cp149 assembly, compounds of the present invention were added to the Cp149-containing suspension. The final concentration of Cp149 was 1 mg per mL, and the compounds of the present invention were added at concentrations of 0.1 to 10 μM. The suspension was mixed with reaction buffer (150 mM HEPES, pH 7.5, 15 mM NaCl) added in a 2:1 ratio. In vitro assembly was performed at 37° C. for 1 hour, and HBV capsid was detected by immunoblot analysis using an anti-HBV core antibody (1:2000, B0586, Dako).

The mark [2] stands for this setting: Hepatitis B virus, read-out: HBV DNA quantification (IC50 μM).
[3] abbreviates: Hepatitis B virus, read-out: HBV DNA quantification.
The mark [4] stands for this setting: Hepatitis B virus; read-out: HBV DNA quantification (IC50 μM).

T1 sequence (P03146 1-149): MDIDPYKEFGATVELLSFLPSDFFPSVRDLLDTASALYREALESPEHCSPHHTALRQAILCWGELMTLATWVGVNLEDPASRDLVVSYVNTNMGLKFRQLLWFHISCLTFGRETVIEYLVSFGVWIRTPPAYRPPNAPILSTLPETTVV

`COc1ncccc1C(=O)NCCNc1cc(Nc2ccc(Cl)cc2)nc([S+](C)[O-])n1` (stereo not shown) [Compound 9c, N-(2-(6-(4-chlorophenylamino)-2-(methylsulfinyl)pyrimidin-4-ylamino)ethyl)-2-methoxynicotinamide]: the IC50 with HBV DNA (setting [2]) was determined as 0.299 µM. For the same compound, in test [1], the inhibition (usually the drop in the measured response relative to a control, in per cent) at 0.1 µM was 27% and the inhibition at 1 µM was 80%.
Consider `CS(=O)(=O)c1nc(Nc2ccc(F)c(Cl)c2)cc(N2C[C@@H]3C[C@H]2CN3)n1` [Compound 29c, 6-((1S,4S)-2,5-diazabicyclo[2.2.1]heptan-2-yl)-N-(3-chloro-4-fluorophenyl)-2-(methylsulfonyl)pyrimidin-4-amine], for which the IC50 in the test on HBV DNA (setting [2]) was 0.428 µM.
For `COc1ncccc1C(=O)NCCNc1cc(Nc2ccc(F)cc2Cl)nc(S(C)(=O)=O)n1` [Compound 9i, N-(2-(6-(2-chloro-4-fluorophenylamino)-2-(methylsulfonyl)pyrimidin-4-ylamino)ethyl)-2-methoxynicotinamide], in the test with HBV DNA (setting [2]), the IC50 is greater than 10 µM. Moreover, the inhibition at 10 µM in test [1] came out at 43%.
In the same order, the values of `CC(C)(C)OC(=O)N1CCN(c2cc(Nc3cc(F)c(F)c(F)c3)nc(S(C)(=O)=O)n2)CC1` [Compound 22h, tert-butyl 4-(2-(methylsulfonyl)-6-(3,4,5-trifluorophenylamino)pyrimidin-4-yl)piperazine-1-carboxylate] are 0.577 µM and 96%.
For `COc1ncccc1C(=O)NCCNc1cc(Nc2ccc(Cl)cc2)nc(SC)n1` [Compound 8c, N-(2-(6-(4-chlorophenylamino)-2-(methylthio)pyrimidin-4-ylamino)ethyl)-2-methoxynicotinamide], the IC50 in the test on HBV DNA (setting [3]) was greater than 10 µM. In test [1], the inhibition at 10 µM was 26%.
Regarding `CSc1nc(NCCNC(=O)c2ccc(Cl)cc2Cl)cc(Nc2ccc(N3CCOCC3)cc2)n1` [Compound 4d, 2,4-dichloro-N-(2-(2-(methylthio)-6-(4-morpholinophenylamino)pyrimidin-4-ylamino)ethyl)benzamide], the IC50 with HBV DNA (setting [2]) is greater than 10 µM. In addition, the inhibition at 10 µM in test [1] was 0%.
As to `COc1ncccc1C(=O)NCCNc1cc(Nc2ccccc2)nc(SC)n1` [Compound 8a, 2-methoxy-N-(2-(2-(methylthio)-6-(phenylamino)pyrimidin-4-ylamino)ethyl)nicotinamide], the IC50 in the test on HBV DNA (setting [3]) was greater than 10 µM. For the same compound, the inhibition at 10 µM in test [1] was determined as 0%.
Taken in the same sequence, the figures for `COc1ncccc1C(=O)NCCNc1cc(Nc2ccc(F)c(F)c2)nc(SC)n1` [Compound 8f, N-(2-(6-(3,4-difluorophenylamino)-2-(methylthio)pyrimidin-4-ylamino)ethyl)-2-methoxynicotinamide] were greater than 10 µM and 37%.
In the case of `COc1ncccc1C(=O)NCCNc1cc(Nc2ccc(F)c(F)c2)nc(S(C)(=O)=O)n1` [Compound 9g, N-(2-(6-(3,4-difluorophenylamino)-2-(methylsulfonyl)pyrimidin-4-ylamino)ethyl)-2-methoxynicotinamide], the IC50 with HBV DNA (setting [2]) is greater than 10 µM. In test [1], the inhibition at 10 µM turned out to be 59%.
On to `CS(=O)(=O)c1nc(Nc2ccc(F)c(Cl)c2)cc(N2C[C@@H]3[C@@H](N)[C@@H]3C2)n1` [Compound 29d, (1R,5S,6s)-3-(6-(3-chloro-4-fluorophenylamino)-2-(methylsulfonyl)pyrimidin-4-yl)-3-azabicyclo[3.1.0]hexan-6-amine], for which the IC50 with HBV DNA (read-out: HBV DNA quantification (IC50 μM)) turned out to be 0.769 µM.
Take `COc1cncc(C(=O)NCCNc2cc(Nc3ccc(N4CCOCC4)cc3)nc(SC)n2)c1` [Compound 4b, 5-methoxy-N-(2-(2-(methylthio)-6-(4-morpholinophenylamino)pyrimidin-4-ylamino)ethyl)nicotinamide]: in the test on HBV DNA (setting [4]), the IC50 is greater than 10 µM. In test [1], the inhibition at 10 µM amounted to 37%.
On to `CSc1nc(Cl)cc(N(Cc2ccc(F)cc2)c2ccc(N3CCOCC3)cc2)n1` [Compound 10a, 6-chloro-N-(4-fluorobenzyl)-2-(methylthio)-N-(4-morpholinophenyl)pyrimidin-4-amine], for which, in the test on HBV DNA (setting [2]), the IC50 is greater than 10 µM. The inhibition at 10 µM in test [1] is 58%.
Taken in the same sequence, the figures for `CC(C)(C)OC(=O)N1CCN(c2cc(NCc3ccc(F)cc3)nc(S(C)(=O)=O)n2)CC1` [Compound 22b, tert-butyl 4-(6-(4-fluorobenzylamino)-2-(methylsulfonyl)pyrimidin-4-yl)piperazine-1-carboxylate] were 0.549 µM and 40%.
`CSc1nc(N)cc(N(Cc2ccc(F)cc2)c2ccc(N3CCOCC3)cc2)n1` [Compound 11a, N^4-(4-fluorobenzyl)-2-(methylthio)-N^4-(4-morpholinophenyl)pyrimidine-4,6-diamine]: the IC50 with HBV DNA (setting [4]) was greater than 10 µM. In addition, in test [1], the inhibition at 10 µM worked out at 71%.
With `COc1ncccc1C(=O)NCCNc1cc(Nc2ccc(I)cc2)nc([S+](C)[O-])n1` (stereo not shown) [Compound 9e, N-(2-(6-(4-iodophenylamino)-2-(methylsulfinyl)pyrimidin-4-ylamino)ethyl)-2-methoxynicotinamide], the IC50 with HBV DNA (setting [4]) was greater than 10 µM. The inhibition at 10 µM in test [1] came to 37%.
Regarding `COc1ncccc1C(=O)NCCNc1cc(Nc2ccc(Br)cc2)nc([S+](C)[O-])n1` (stereo not shown) [Compound 9d, N-(2-(6-(4-bromophenylamino)-2-(methylsulfinyl)pyrimidin-4-ylamino)ethyl)-2-methoxynicotinamide], the IC50 in the test on HBV DNA (setting [2]) turned out to be 0.177 µM. Besides, in test [1], the inhibition at 0.1 µM amounted to 27% and the inhibition at 1 µM worked out at 82%.
In the same order, the values of `CS(=O)(=O)c1nc(Nc2ccc(F)c(Cl)c2)cc(N2CCC(N)CC2)n1` [Compound 26i, 6-(4-aminopiperidin-1-yl)-N-(3-chloro-4-fluorophenyl)-2-(methylsulfonyl)pyrimidin-4-amine] are 0.181 µM, 52% and 99%.
Take `CC(C)(C)OC(=O)N1CCN(c2cc(NCc3ccc(Cl)cc3)nc(S(C)(=O)=O)n2)CC1` [Compound 22d, tert-butyl 4-(6-(4-chlorobenzylamino)-2-(methylsulfonyl)pyrimidin-4-yl)piperazine-1-carboxylate]: the IC50 with HBV DNA (setting [2]) was 5.08 µM. Besides, the inhibition at 10 µM in test [1] came to 55%.
Regarding `CS(=O)(=O)c1nc(Nc2ccc(F)c(Cl)c2)cc(NC2CCNCC2)n1` [Compound 26f, N^4-(3-chloro-4-fluorophenyl)-2-(methylsulfonyl)-N^6-(piperidin-4-yl)pyrimidine-4,6-diamine], in the test on HBV DNA (setting [2]), the IC50 was determined as 0.199 µM. In addition, in test [1], the inhibition at 0.1 µM stood at 59% and the inhibition at 1 µM amounted to 95%.
For the compound `CS(=O)(=O)c1nc(Nc2ccc(F)cc2)cc(Nc2ccc(F)cc2)n1` [Compound 18a, N^4,N^6-bis(4-fluorophenyl)-2-(methylsulfonyl)pyrimidine-4,6-diamine], the IC50 in the test on HBV DNA (setting [4]) was found to be 6.4 µM. The inhibition at 10 µM in test [1] was determined as 49%.
For `COc1ncccc1C(=O)NCCNc1cc(Nc2ccc(F)cc2)nc(SC)n1` [Compound 8b, N-(2-(6-(4-fluorophenylamino)-2-(methylthio)pyrimidin-4-ylamino)ethyl)-2-methoxynicotinamide], the inhibition at 10 µM in test [1] is 74%.
Regarding `COc1ncccc1C(=O)NCCNc1cc(Nc2ccc(I)cc2)nc(SC)n1` [Compound 8e, N-(2-(6-(4-iodophenylamino)-2-(methylthio)pyrimidin-4-ylamino)ethyl)-2-methoxynicotinamide], the inhibition at 10 µM in test [1] turned out to be 43%.
In the case of `CS(=O)(=O)c1nc(Nc2ccc(F)c(Cl)c2)cc(N2CC3(CNC3)C2)n1` [Compound 29b, N-(3-chloro-4-fluorophenyl)-2-(methylsulfonyl)-6-(2,6-diazaspiro[3.3]heptan-2-yl)pyrimidin-4-amine], the IC50 in the test with HBV DNA (setting [2]) was determined as 0.235 µM.
The same measure, in the same setting: in the case of `CS(=O)(=O)c1nc(Nc2ccc(F)c(Cl)c2)cc(N2C[C@H]3C[C@@H]2CN3)n1` [Compound 29a, 6-((1R,4R)-2,5-diazabicyclo[2.2.1]heptan-2-yl)-N-(3-chloro-4-fluorophenyl)-2-(methylsulfonyl)pyrimidin-4-amine] it was 0.15 µM.
